Measurements taken from patent US11046699B2, “Pyrazolo-pyrimidin-amino-cycloalkyl compounds and their therapeutic uses” (RAPT THERAPEUTICS, INC., priority 2018, dated 2021).
pIC50: −log10 of the molar value.

Target: GCN2 (Homo sapiens, UniProt Q9P2K8)
Experiment: GCN2 enzymatic endpoint assay: phosphorylation of GFP-eIF2α measured by TR-FRET (Lanthascreen)
Format: biochemical
Settings: tested as described in Example 77; compound and/or hydrochloride, dihydrochloride or trifluoroacetic acid salt; read-out: IC 50 Activity
Procedure: The Enzymatic assay was run as an endpoint assay to quantify the activity of the serine/threonine GCN2 kinase by way of measuring phosphorylation of its natural substrate, eiF2α.
The enzymatic reaction was initiated by incubating with 2 μM ATP and 80 nM of GFP labeled eiF2a substrate at room temperature and then stopped after 90 minutes with EDTA. The amount of phosphorylated eIF2α is determined by TR-FRET (Lanthascreen). A terbium labeled antibody associates with the phosphorylated substrate resulting in an increased TR-FRET value. Activity was calculated as the ratio of the acceptor (fluorescein) signal at 520 nm wavelength to the donor (terbium) signal 495 nm. The amount of antibody that is bound to the tracer is directly proportional to the amount of phosphorylated substrate present, and in this manner, kinase activity can be detected and measured by an increase in the TR-FRET value.
Compound addition by D300
5 μL enzyme solution in assay buffer
5 μL substrate/ATP mixture in assay buffer
5 μL stop/detection mix in antibody dilution buffer

Sequence of GCN2 (Q9P2K8 whole entry): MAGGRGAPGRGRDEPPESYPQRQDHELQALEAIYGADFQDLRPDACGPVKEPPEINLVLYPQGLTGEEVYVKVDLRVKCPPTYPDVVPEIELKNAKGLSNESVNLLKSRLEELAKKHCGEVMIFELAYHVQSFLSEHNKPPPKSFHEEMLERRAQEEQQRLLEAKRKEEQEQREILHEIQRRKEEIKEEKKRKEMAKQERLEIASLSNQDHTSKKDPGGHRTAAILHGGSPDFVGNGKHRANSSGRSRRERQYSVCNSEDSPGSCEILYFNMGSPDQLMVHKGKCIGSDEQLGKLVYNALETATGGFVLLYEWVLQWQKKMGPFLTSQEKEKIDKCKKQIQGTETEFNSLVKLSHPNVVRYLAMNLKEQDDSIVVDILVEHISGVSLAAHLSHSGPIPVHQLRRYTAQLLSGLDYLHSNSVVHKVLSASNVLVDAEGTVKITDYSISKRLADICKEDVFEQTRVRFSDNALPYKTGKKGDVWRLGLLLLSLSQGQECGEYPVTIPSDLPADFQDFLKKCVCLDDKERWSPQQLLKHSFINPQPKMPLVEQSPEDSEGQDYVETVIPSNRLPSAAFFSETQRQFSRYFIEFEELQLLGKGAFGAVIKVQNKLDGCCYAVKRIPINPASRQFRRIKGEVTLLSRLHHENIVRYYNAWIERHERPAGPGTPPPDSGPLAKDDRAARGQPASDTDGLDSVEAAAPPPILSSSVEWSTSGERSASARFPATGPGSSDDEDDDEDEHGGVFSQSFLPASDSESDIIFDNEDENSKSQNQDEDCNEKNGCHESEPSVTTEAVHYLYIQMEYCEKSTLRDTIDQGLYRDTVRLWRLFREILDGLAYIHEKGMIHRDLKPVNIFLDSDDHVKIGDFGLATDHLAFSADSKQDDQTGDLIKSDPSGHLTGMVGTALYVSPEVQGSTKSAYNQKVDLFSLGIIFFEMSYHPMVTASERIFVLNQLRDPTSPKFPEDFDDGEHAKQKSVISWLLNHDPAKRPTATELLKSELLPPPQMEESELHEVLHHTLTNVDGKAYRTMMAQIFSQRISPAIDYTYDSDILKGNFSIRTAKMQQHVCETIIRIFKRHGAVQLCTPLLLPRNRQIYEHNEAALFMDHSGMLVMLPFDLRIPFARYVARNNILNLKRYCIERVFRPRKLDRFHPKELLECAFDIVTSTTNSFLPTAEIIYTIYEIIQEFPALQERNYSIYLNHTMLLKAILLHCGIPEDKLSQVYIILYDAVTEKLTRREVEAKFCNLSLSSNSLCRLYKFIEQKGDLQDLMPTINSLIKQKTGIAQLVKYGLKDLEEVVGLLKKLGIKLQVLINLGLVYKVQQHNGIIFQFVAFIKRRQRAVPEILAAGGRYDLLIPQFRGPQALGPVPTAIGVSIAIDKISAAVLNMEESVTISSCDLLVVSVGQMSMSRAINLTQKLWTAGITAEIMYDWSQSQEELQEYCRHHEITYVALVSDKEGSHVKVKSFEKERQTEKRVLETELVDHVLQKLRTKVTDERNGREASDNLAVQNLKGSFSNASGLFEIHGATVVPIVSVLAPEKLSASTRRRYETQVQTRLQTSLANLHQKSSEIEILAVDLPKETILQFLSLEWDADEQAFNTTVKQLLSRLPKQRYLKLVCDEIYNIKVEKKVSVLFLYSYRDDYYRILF

Row | Structure (SMILES) | pIC50
1 | O=C1CN(C(=O)[C@@H]2CC[C@@H](Nc3ncc4c(Br)nn(-c5cc(F)c6ncccc6c5)c4n3)C2)CN1 | 6.70 to 7.60
2 | Cc1nnc(-c2ccc(-n3nc(Br)c4cnc(N[C@@H]5CC[C@@]6(CCNC6=O)C5)nc43)cc2CCC#N)s1 | 6.70 to 7.60
3 | Cc1nnc(-c2ccc(-n3nc(Br)c4cnc(N[C@@H]5CC[C@]6(CCNC6=O)C5)nc43)cc2CCC#N)s1 | 6.70 to 7.60
4 | Cc1nnc(-c2ccc(-n3nc(Br)c4cnc(NC5CCC(CN(C)C)(C(=O)O)C5)nc43)cc2)s1 (centres unmarked) | 6.70 to 7.60
5 | N#Cc1cc(-n2nc(Br)c3cnc(N[C@@H]4CC[C@@H](C(=O)N5CCS(=N)(=O)CC5)C4)nc32)cc2cccnc12 | > 7.60
6 | Cc1nnc(-c2ccc(-n3nc(Br)c4cnc(N[C@@H]5CC[C@@H](NC(=O)C6CNC6)C5)nc43)cc2)s1 | 6.70 to 7.60
7 | CNC(=O)[C@]1(C)CC[C@@H](Nc2ncc3c(Br)nn(-c4cc(Cl)cc(CN=S(C)(=O)O)c4)c3n2)C1 | 6.70 to 7.60
8 | CNC(=O)[C@]1(C)CC[C@@H](Nc2ncc3c(Br)nn(-c4ccc5nc(N)ncc5c4)c3n2)C1 | 6.70 to 7.60
9 | CNC(=O)[C@]1(C)CC[C@@H](Nc2ncc3c(Br)nn(-c4cc(Cl)cc([C@@H](C)N)c4)c3n2)C1 | > 7.60
10 | CNC(=O)[C@]1(C)CC[C@@H](Nc2ncc3c(Br)nn(-c4cc(F)cc([C@H](C)N)c4)c3n2)C1 | 6.70 to 7.60
11 | CNC(=O)[C@]1(C)CC[C@@H](Nc2ncc3c(Br)nn(-c4cc(Cl)c(F)c(CN)c4)c3n2)C1 | 6.70 to 7.60
12 | CNC(=O)[C@]1(C)CC[C@@H](Nc2ncc3c(Br)nn(-c4cc(C#N)cc(CN)c4)c3n2)C1 | 6.70 to 7.60
13 | CNC(=O)[C@]1(C)CC[C@@H](Nc2ncc3c(Br)nn(-c4cc(CCN)c5cnccc5c4)c3n2)C1 | > 7.60
14 | CNC(=O)[C@]1(C(C)C)CC[C@@H](Nc2ncc3c(Br)nn(-c4cc([C@@H](C)N)c5nccnc5c4)c3n2)C1 | > 7.60
15 | CNC(=O)[C@]1(C)CC[C@@H](Nc2ncc3c(Br)nn(-c4ccc5c(c4)COC5=O)c3n2)C1 | 6.70 to 7.60
16 | CNC(=O)[C@]1(C)CC[C@@H](Nc2ncc3c(Br)nn(-c4ccc5nc(N(C)C)ncc5c4)c3n2)C1 | 6.70 to 7.60
17 | CNC(=O)[C@]1(C)CC[C@@H](Nc2ncc3c(Br)nn(-c4ccc5nc(NC)ncc5c4)c3n2)C1 | 6.70 to 7.60
18 | COc1cc(-n2nc(Br)c3cnc(N[C@@H]4CC[C@@H](C(=O)NCCS(C)(=O)=O)C4)nc32)ccn1 | 6.00 to 6.30
19 | CNC(=O)[C@]1(C)CC[C@@H](Nc2ncc3c(Br)nn(-c4cc(Cl)c(F)c(CNS(C)(=O)=O)c4)c3n2)C1 | 6.70 to 7.60
20 | CNC(=O)[C@]1(C)CC[C@@H](Nc2ncc3c(Br)nn(-c4cc(Cl)c(F)c(CS(C)(=O)=O)c4)c3n2)C1 | 6.70 to 7.60
21 | CNC(=O)[C@]1(C)CC[C@@H](Nc2ncc3c(Br)nn(-c4cc(Cl)cc(CCNS(C)(=O)=O)c4)c3n2)C1 | 6.70 to 7.60
22 | CNC(=O)[C@]1(C)CC[C@@H](Nc2ncc3c(Br)nn(-c4cc(Cl)cc(CCC#N)c4)c3n2)C1 | 6.70 to 7.60
23 | CNC(=O)[C@]1(C)CC[C@@H](Nc2ncc3c(Br)nn(-c4cc(Cl)cc(CCS(C)(=O)=O)c4)c3n2)C1 | 6.70 to 7.60
24 | CNC(=O)[C@]1(C)CC[C@@H](Nc2ncc3c(Br)nn(-c4cc(Cl)c(F)c(CC#N)c4)c3n2)C1 | 6.70 to 7.60

Row | Structure (SMILES) | pIC50
25 | CNC(=O)[C@]1(C)CC[C@@H](Nc2ncc3c(Br)nn(-c4cc(C#N)cc(CC#N)c4)c3n2)C1 | 6.70 to 7.60
26 | CNC(=O)[C@]1(C)CC[C@@H](Nc2ncc3c(Br)nn(-c4cc(C#N)cc(CNS(C)(=O)=O)c4)c3n2)C1 | 6.70 to 7.60
27 | CNC(=O)[C@]1(C)CC[C@@H](Nc2ncc3c(Br)nn(-c4cc(C#N)cc(CS(C)(=O)=O)c4)c3n2)C1 | 6.70 to 7.60
28 | CCc1cc(-n2nc(Br)c3cnc(N[C@@H]4CC[C@@](C)(C(=O)NC)C4)nc32)ccc1-c1nnc(C)s1 | 6.70 to 7.60
29 | CNC(=O)[C@]1(C)CC[C@@H](Nc2ncc3c(Br)nn(-c4ccc(-c5nnc(C)s5)c(F)c4)c3n2)C1 | > 7.60
30 | CS(=O)(=O)CCNC(=O)[C@@H]1CC[C@@H](Nc2ncc3c(Br)nn(-c4ccc5ncc(F)cc5c4)c3n2)C1 | 6.30 to 6.70
31 | CNC(=O)[C@]1(C)CC[C@@H](Nc2ncc3c(Br)nn(-c4ccc(-c5nnc(C(C)(C)O)s5)cc4)c3n2)C1 | 6.70 to 7.60
32 | CNC(=O)[C@]1(CC(F)(F)F)CC[C@@H](Nc2ncc3c(Br)nn(-c4ccc(-c5nnc(C)s5)cc4)c3n2)C1 | 6.70 to 7.60
33 | CNC(=O)[C@]1(CCOC)CC[C@@H](Nc2ncc3c(Br)nn(-c4ccc(-c5nnc(C)s5)cc4)c3n2)C1 | 6.70 to 7.60
34 | O=C(NC1CCS(=O)(=O)CC1)[C@@H]1CC[C@@H](Nc2ncc3c(Br)nn(-c4ccc(-c5cccnc5)cc4)c3n2)C1 | 6.30 to 6.70
35 | CNC(=O)[C@]1(C)CC[C@@H](Nc2ncc3c(Br)nn(-c4ccc5c(c4)S(=O)(=O)CC(=O)N5C)c3n2)C1 | 6.70 to 7.60
36 | CNC(=O)[C@]1(C)CC[C@@H](Nc2ncc3c(Br)nn(-c4ccc(-c5nnc(C)s5)nc4)c3n2)C1 | 6.70 to 7.60
37 | CNC(=O)[C@]1(C)CC[C@@H](Nc2ncc3c(Br)nn(-c4cc(CCCO)c5c(c4)CCC(=O)N5C)c3n2)C1 | > 7.60
38 | N#Cc1cc(-n2nc(Br)c3cnc(N[C@@H]4CC[C@@H](C(=O)NC5CCC(C#N)C5)C4)nc32)cc2cccnc12 (some centres unmarked) | 6.70 to 7.60
39 | N#Cc1cc(-n2nc(Br)c3cnc(N[C@@H]4CC[C@@H](C(=O)NCC5(F)CNC5)C4)nc32)cc2cccnc12 | > 7.60
40 | N#Cc1cc(-n2nc(Br)c3cnc(N[C@@H]4CC[C@@H](C(=O)N=S5(=O)CCNCC5)C4)nc32)cc2cccnc12 | 6.70 to 7.60
41 | CN1C(=O)CCC1CNC(=O)[C@@H]1CC[C@@H](Nc2ncc3c(Br)nn(-c4cc(C#N)c5ncccc5c4)c3n2)C1 (some centres unmarked) | > 7.60
42 | O=C(NCC(F)(F)CO)[C@@H]1CC[C@@H](Nc2ncc3c(Br)nn(-c4cc(F)c5ncccc5c4)c3n2)C1 | 6.70 to 7.60
43 | O=C(NC[C@H]1COCCN1)[C@@H]1CC[C@@H](Nc2ncc3c(Br)nn(-c4cc(F)c5ncccc5c4)c3n2)C1 | 6.70 to 7.60
44 | CC(C)(O)CNC(=O)[C@@H]1CC[C@@H](Nc2ncc3c(Br)nn(-c4cc(F)c5ncccc5c4)c3n2)C1 | 6.70 to 7.60
45 | O=C(N[C@H]1C[C@H](O)C1)[C@@H]1CC[C@@H](Nc2ncc3c(Br)nn(-c4cc(F)c5ncccc5c4)c3n2)C1 | 6.70 to 7.60
46 | CNC(=O)[C@]1(C)CC[C@@H](Nc2ncc3c(Br)nn(-c4cc(N5CCNCC5)c5ncccc5c4)c3n2)C1 | 6.70 to 7.60
47 | C[C@]1(NC(=O)[C@@H]2CC[C@@H](Nc3ncc4c(Br)nn(-c5ccc6ncccc6c5)c4n3)C2)C[C@H](O)C1 | 6.70 to 7.60
48 | O=C(N[C@H]1CC[C@@](O)(C(F)(F)F)CC1)[C@@H]1CC[C@@H](Nc2ncc3c(Br)nn(-c4ccc5ncccc5c4)c3n2)C1 | 6.70 to 7.60

Row | Structure (SMILES) | pIC50
49 | O=C(N[C@H]1CC[C@](O)(C(F)(F)F)CC1)[C@@H]1CC[C@@H](Nc2ncc3c(Br)nn(-c4ccc5ncccc5c4)c3n2)C1 | 6.00 to 6.30
50 | O=C(NC1CCS(=O)(=O)CC1)[C@@H]1CC[C@@H](Nc2ncc3c(Br)nn(-c4ccc5ncccc5c4)c3n2)C1 | 6.70 to 7.60
51 | CC(C)(CN1CCCC1)NC(=O)[C@@H]1CC[C@@H](Nc2ncc3c(Br)nn(-c4ccc5ncccc5c4)c3n2)C1 | 6.70 to 7.60
52 | CNC(=O)[C@]1(C)CC[C@@H](Nc2ncc3c(Br)nn(-c4ccc5cncnc5c4)c3n2)C1 | 6.70 to 7.60
53 | CC(C)(NC(=O)[C@@H]1CC[C@@H](Nc2ncc3c(Br)nn(-c4cc(C#N)c5ncccc5c4)c3n2)C1)C(N)=O | > 7.60
54 | CC1(C(=O)NC2CCOCC2)CC(Nc2ncc3c(Br)nn(-c4ccc5ncccc5c4)c3n2)C1 (centres unmarked) | 6.70 to 7.60
55 | CNC(=O)[C@H]1C[C@H](Nc2ncc3c(Br)nn(-c4cc(F)c5ncccc5c4)c3n2)C1 | 6.30 to 6.70
56 | C[C@]1(C(=O)O)C[C@H](Nc2ncc3c(Br)nn(-c4ccc5ncccc5c4)c3n2)C1 | 6.30 to 6.70
57 | C[C@]1(C(=O)N[C@@H]2CCOC2)C[C@H](Nc2ncc3c(Br)nn(-c4ccc5ncccc5c4)c3n2)C1 | 6.70 to 7.60
58 | Cc1nnc(-c2ccc(-n3nc(Br)c4cnc(N[C@@H]5CC[C@@H](NC(=O)[C@H]6CCCCN6)C5)nc43)cc2)s1 | 6.70 to 7.60
59 | Cc1nnc(-c2ccc(-n3nc(Br)c4cnc(N[C@@H]5CC[C@@H](NC(=O)[C@@H]6CCCCN6)C5)nc43)cc2)s1 | 6.70 to 7.60
60 | CNC(=O)C1(C(C)C#N)CC[C@@H](Nc2ncc3c(Br)nn(-c4ccc(-c5nnc(C)s5)c(CCC#N)c4)c3n2)C1 (some centres unmarked) | 6.70 to 7.60
61 | CNC(=O)C1(CCS(C)(=O)=O)CC[C@@H](Nc2ncc3c(Br)nn(-c4ccc(-c5nnc(C)s5)c(CCC#N)c4)c3n2)C1 (some centres unmarked) | 6.70 to 7.60
62 | CNC(=O)C1(CC#N)CC[C@@H](Nc2ncc3c(Br)nn(-c4ccc(-c5nnc(C)s5)c(CCC#N)c4)c3n2)C1 (some centres unmarked) | 6.70 to 7.60
63 | CNC(=O)C1(C)CC[C@@H](Nc2ncc3c(Br)nn(-c4cc(CO)cc(C(C)(C)C)c4)c3n2)C1 (some centres unmarked) | 6.70 to 7.60
64 | Cc1nnc(-c2ccc(-n3nc(Br)c4cnc(N[C@@H]5CCC(CN6CCOCC6)(C(=O)O)C5)nc43)cc2)s1 (some centres unmarked) | 6.70 to 7.60
65 | CNC(=O)C1(CC#N)CC[C@@H](Nc2ncc3c(Br)nn(-c4ccc(-c5nnc(C)s5)cc4)c3n2)C1 (some centres unmarked) | 6.70 to 7.60
66 | CNC(=O)C1(C(C)C#N)CC[C@@H](Nc2ncc3c(Br)nn(-c4ccc(-c5nnc(C)s5)cc4)c3n2)C1 (some centres unmarked) | 6.70 to 7.60
67 | Cc1nnc(-c2ccc(-n3nc(Br)c4cnc(N[C@@H]5CCC(S(=O)(=O)NCCC#N)C5)nc43)cc2)s1 (some centres unmarked) | 6.70 to 7.60
68 | CN(CC1(C)COC1)C(=O)C1(C)CC[C@@H](Nc2ncc3c(Br)nn(-c4cc(F)c5ncccc5c4)c3n2)C1 (some centres unmarked) | > 7.60
69 | Cc1nnc(-c2ccc(-n3nc(Br)c4cnc(N[C@@H]5CC[C@@]6(CCNC6=O)C5)nc43)cc2)s1 | 6.70 to 7.60
70 | Cc1nnc(-c2ccc(-n3nc(Br)c4cnc(N[C@@H]5CC[C@]6(CCNC6=O)C5)nc43)cc2)s1 | 6.70 to 7.60
71 | C[C@@]1(C(=O)N2CCN3C(=O)CC[C@@H]3C2)CC[C@@H](Nc2ncc3c(Br)nn(-c4cc(F)c5ncccc5c4)c3n2)C1 | 6.70 to 7.60
